# Results: US20030219894A1, “Induction of insulin-producing cells” (JCR Pharmaceuticals Co., Ltd., priority 2002, published 2003)
# Experiments:
# Format in all cases: cell-based
# [1] = system: mouse fetal hepatocytes; test: RT-PCR analysis of insulin 1 and 2 gene expression in cultured fetal hepatocytes with medium supplements; conditions: for induction of insulin 1 and 2 gene expression: supplement separately added to DMEM/F12 containing 10% FBS
# Method: For preparing fetal hepatocytes, the liver of fetal ICR mice (embryonic day 13.5) was excised and treated with 0.1% trypsin-phosphate-buffered saline for 5 min at 37° C. A culture medium solution then was added, and the mixture was filtered through a nylon membrane (#200). The cell suspension thus obtained was centrifuged at 50 g for 5 min. The cell pellet was suspended in a medium consisting of 1:1 DMEM/F12 (Sigma D6421) supplemented with 10% fetal bovine serum, L-glutamine (2 mmol/L), β-mercaptoethanol (β-ME), (50 μmol/L), penicillin (100,000 U/L) and streptomycin (100 mg/L). The formula of the 1:1 DMEM/F12 (Dulbecco's Modified Eagle's Medium/Ham's Nutrient Mixture F-12: Sigma D6421) was as follows (in g/L): Ca2Cl2/2H2O (0.1545), CuSO4/5H2O (0.0000013), Fe(NO3)3/9H2O (0.00005). […]
# Both insulin 1 and 2 genes were clearly expressed under the culture conditions used, as determined by RT-PCR analysis. […] Each of these supplements was separately added to the DMEM/F12 containing 10% FBS, and effects on insulin expression was evaluated in thus formed different media. […]
# [2] = system: mouse embryonic fibroblasts (MEF); test: RT-PCR analysis of insulin 1 and 2 gene expression in mouse embryonic fibroblasts (negative control cells); conditions: MEF from fetal limbs (ED13.5), medium supplemented with nicotinamide; FIG. 1
# Method: (§1) Both insulin 1 and 2 genes were clearly expressed under the culture conditions used, as determined by RT-PCR analysis. It was assumed that some of the supplements (nicotinamide, EGF, insulin or dexamethasone) to the culture medium were responsible for the expression of the insulin genes in the hepatocytes. Each of these supplements was separately added to the DMEM/F12 containing 10% FBS, and effects on insulin expression was evaluated in thus formed different media. When cultured in a medium not supplemented with nicotinamide (containing just 0.0165 mmol/L of nicotinamide), the mouse fetal hepatocytes either din not express the insulin 1 or 2 gene at all, or did expressed them but only very poorly (FIG. 1). […] As a negative control, mouse embryonic fibroblasts (MEF) were prepared from fetal limbs (ED13.5), and cultured under the same conditions. […] Immunohistochemistry using anti-insulin antibody was employed to confirm that a high-concentration of nicotinamide was requited for the differentiation of mouse fetal hepatocytes into insulin-producing cells.
# [3] = system: mouse fetal hepatocytes; test: Immunohistochemistry using anti-insulin antibody; conditions: medium supplemented with nicotinamide; FIG. 3 vs FIG. 2
# Excerpt: Fetal hepatocytes were fixed with 4% paraformaldehyde in 0.1 M phosphate buffer and stained by direct immunoperoxidase method using a guinea pig anti-pig insulin antibody (Zymed Laboratories, South San Francisco, Calif.) and a peroxidase-labeled pig anti-guinea pig IgG (DAKO Japan, Kyoto).
# as §1
compound,measurement,setting,value
"insulin: insulin, culture medium supplement (172 nmol/L)",induction of insulin 1 and 2 gene expression,[1],either had no effect or had only a marginal effect
"EGF: epidermal growth factor (EGF), culture medium supplement (NSDSECPLSHDGYCLHDGVCMYIEALDKYACNCVVGYIGERCQYRDLKWWELR; Epidermal growth factor; UniProt P01133 971-1023, looked up)",induction of insulin 1 and 2 gene expression,[1],either had no effect or had only a marginal effect
NC(=O)c1cccnc1 [nicotinamide],expression of the insulin 1 and 2 genes in MEF,[2],expressed
same,expression of the insulin 1 and 2 genes,"[1]; medium supplemented with 10 mmol/L of nicotinamide, DMEM/F12 containing 10% FBS, FIG. 1",markedly induced
same,generation of insulin-positive cells (anti-insulin immunostaining),[3],led to generation of insulin-positive cells
